According to PubChem BioAssay AID1963868 (Molecular Pharmacology Branch, DTP, NCI, 2024):
pIC50: −log10 of the molar value.

System: KRAS PDC tumor spheroids (HUVEC+MSC), viability
Assay: Anticancer human tumor 254851-301-R-J1-PDC patient-derived colon carcinoma cell line growth inhibition [KRAS2]
Conditions: for viability, T/C: stronger effect = lower value
Source text: Multicellular complex tumor spheroid response to RAS pathway inhibitors in combination with a targeted agents in patient-derived cell lines with oncogenic KRAS variants from multiple cancer types
A high-throughput screen of multi-cell type tumor spheroids was designed to identify active combinations of targeted small molecules and KRAS pathway inhibitors. Complex spheroids include a stromal component modeled by human endothelial cells (HUVEC) and fibroblasts modeled by human mesenchymal stem cells (MSCs). The concentration ranges selected for each drug and investigational agent were based upon clinically achievable concentrations if the clinical Cmax of the agent was known.
Compounds. The drugs and investigational agents: BI-3406 (NSC825286), BAY-293 (NSC824723), batoprotafib (TNO155; NSC825523), sotorasib (AMG 510; NSC818433), MRTX1257 (NSC819558), elimusertib (BAY 1895344; NSC800525), molibresib (GSK525762; NSC774829), temuterkib (LY3214996; NSC803410), venetoclax (NSC766270), alisertib (NSC759677), olaparib (NSC753686), talazoparib (NSC767125), erdafitinib (NSC781556), ipatasertib (NSC767898), cabozantinib (NSC761068), nintedanib (NSC756659), abemaciclib (NSC768073), docetaxel (NSC628503), trametinib (NSC758246), and sapanisertib (NSC764658) were obtained from the National Cancer Institute (NCI) Developmental Therapeutics Program Chemical Repository. The FDA-approved anticancer drug set is available from the Developmental Therapeutics Program. […] The stock solutions were prepared in dimethyl sulfoxide (DMSO, Sigma-Aldrich, St. Louis, MO, cat. D2650) at 800-fold the tested concentration and stored at -70 degrees C prior to their use. All drugs and investigational agents were tested over a range starting from a high concentration at or near the clinical Cmax and decreasing in half-log increments. If the clinical Cmax for an agent had not been determined, the highest concentration tested was 10 microM.
Cell Culture. All cells were maintained in an incubator at 37 degrees C and 5% CO2 with 95% humidity. The PDC lines were cultured according to standard operating procedures established by the NCI PDMR (https://pdmr.cancer.gov/sops/default.htm). Briefly, all PDCs were thawed and cultured in Matrigel-coated flasks prepared with a working solution of 1X Ham's F-12 nutrient mix, without supplementation (Invitrogen, Waltham, MA, cat. 11765054), 100 U/mL penicillin-streptomycin (Invitrogen, cat. 15140122), and 2.5% Matrigel (Corning Inc., Corning, NY, cat. 354248) for the first three passages. All PDCs were cultured in complete DMEM/F-12 media containing advanced DMEM/F-12 (Invitrogen, cat. 12634028), 4.9% defined fetal bovine serum, heat inactivated (HyClone Laboratories Inc., Logan, UT, cat. SH30070.03HI), 389 ng/mL hydrocortisone (Sigma-Aldrich, cat. H4001), 9.7 ng/mL human EGF recombinant protein (Invitrogen, cat. PHG0313), 23.4 microg/mL adenine (Sigma-Aldrich, cat. A2786), 97.3 U/mL penicillin-streptomycin (Invitrogen, cat. 15140122), 1.9 mM L-glutamine (Invitrogen, cat. 25030081), and 9.7 microM Y-27632 dihydrochloride (Tocris Bioscience, Bristol, United Kingdom, cat. 1254). The PDCs were cultured in complete DMEM/F12 media without 9.7 microM Y-27632 dihydrochloride for at least two passages prior to the screen. The established cell line HOP-62 was cultured in RPMI 1640 medium, HEPES (Invitrogen, cat. 22400105) with 10% defined fetal bovine serum (HyClone Laboratories Inc., cat. SH30070.03) and 2 mM L-glutamine (Invitrogen, cat. 25030081). The pooled donor HUVEC were cultured in endothelial cell growth medium 2 (PromoCell, Heidelberg, Germany, cat. C-22011) and the hMSC were cultured in mesenchymal stem cell growth medium 2 (PromoCell, cat. C-28009). For all experiments, HUVEC and hMSC were used at passages </=5, while the malignant cell lines were used at passages </=15. […]

[1] = compound alone, run of 07/12/2021
[2] = compound alone, run of 07/19/2021
[3] = compound alone, run of 07/26/2021
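Also: spheroids exposed to compounds for seven days before readout.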
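For viability, T/C in this document: 100% = DMSO vehicle control luminescence of the spheroids.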

## CNCc1ccccc1-c1csc(C(C)Nc2nc(C)nc3cc(OC)c(OC)cc23)c1 (stereo not given)
Compound 0.1 µM
  viability, T/C: 95.8% [middle of 17 runs]
Compound 0.316 µM
  viability, T/C: 99.9% [middle of 16 runs]
Compound 10 µM
  viability, T/C: 0.17% [middle of 15 runs]
[1]
  IC50: 4.73 µM [middle of 6 runs]
[2]
  IC50: 4.58 µM [middle of 5 runs]
[3]
  IC50: 2.42 µM [middle of 6 runs]

## COc1cc2nc(C)nc(NC(C)c3cc(N)cc(C(F)(F)F)c3)c2cc1OC1CCOC1 (stereo not given)
Compound 1 µM
  viability, T/C: 92.5% [middle of 17 runs]
[1]
  pIC50: < 5.00
[2]
  pIC50: < 5.00
[3]
  pIC50: < 5.00

## CC(=O)OC12COC1CC(O)C1(C)C(=O)C(O)C3=C(C)C(OC(=O)C(O)C(NC(=O)OC(C)(C)C)c4ccccc4)CC(O)(C(OC(=O)c4ccccc4)C21)C3(C)C (stereo not given) + C=CC(=O)N1CCN(c2nc(=O)n(-c3c(C)ccnc3C(C)C)c3nc(-c4c(O)cccc4F)c(F)cc23)C(C)C1
Curve of first compound, second compound 0.1 µM
  pIC50: 6.59
Curve of first compound, second compound 0.316 µM
  pIC50: 6.61
Curve of first compound, second compound 1 µM
  pIC50: 6.61
Curve of first compound, second compound 3.16 µM
  pIC50: 6.60
Curve of first compound, second compound 10 µM
  pIC50: 6.68
Second compound 0.1 µM, first compound 0.01 µM
  viability, T/C: 104%
Second compound 0.1 µM, first compound 0.0316 µM
  viability, T/C: 94.6%
Second compound 0.1 µM, first compound 0.1 µM
  viability, T/C: 74.4%
Second compound 0.1 µM, first compound 0.316 µM
  viability, T/C: 44.6%
Second compound 0.1 µM, first compound 1 µM
  viability, T/C: 30.5%
Second compound 0.1 µM, first compound 3.16 µM
  viability, T/C: 26.7%
Second compound 0.316 µM, first compound 0.01 µM
  viability, T/C: 90.9%
Second compound 0.316 µM, first compound 0.0316 µM
  viability, T/C: 98%
Second compound 0.316 µM, first compound 0.1 µM
  viability, T/C: 70.8%
Second compound 0.316 µM, first compound 0.316 µM
  viability, T/C: 44.9%
Second compound 0.316 µM, first compound 1 µM
  viability, T/C: 29.8%
Second compound 0.316 µM, first compound 3.16 µM
  viability, T/C: 27.4%
Second compound 1 µM, first compound 0.01 µM
  viability, T/C: 88.1%
Second compound 1 µM, first compound 0.0316 µM
  viability, T/C: 84.5%
Second compound 1 µM, first compound 0.1 µM
  viability, T/C: 68.2%
Second compound 1 µM, first compound 0.316 µM
  viability, T/C: 45%
Second compound 1 µM, first compound 1 µM
  viability, T/C: 30%
Second compound 1 µM, first compound 3.16 µM
  viability, T/C: 26.5%
Second compound 3.16 µM, first compound 0.01 µM
  viability, T/C: 105%
Second compound 3.16 µM, first compound 0.0316 µM
  viability, T/C: 93.5%
Second compound 3.16 µM, first compound 0.1 µM
  viability, T/C: 70.2%
Second compound 3.16 µM, first compound 0.316 µM
  viability, T/C: 45.7%
Second compound 3.16 µM, first compound 1 µM
  viability, T/C: 30.6%
Second compound 3.16 µM, first compound 3.16 µM
  viability, T/C: 27.5%
Second compound 10 µM, first compound 0.01 µM
  viability, T/C: 93.5%
Second compound 10 µM, first compound 0.0316 µM
  viability, T/C: 87.1%
Second compound 10 µM, first compound 0.1 µM
  viability, T/C: 70.9%
Second compound 10 µM, first compound 0.316 µM
  viability, T/C: 38.1%
Second compound 10 µM, first compound 1 µM
  viability, T/C: 26.1%
Second compound 10 µM, first compound 3.16 µM
  viability, T/C: 24.1%
